Our source for the melting point values is patent US6849658B2, “Biaromatic compounds and pharmaceutical and cosmetic compositions comprising them” (Galderma Research & Development, priority 1997, dated 2005).

In turn, `CC1(C)CCSc2c(CC#Cc3ccc(C(=O)O)c(O)c3)cccc21` [Example 6, 2-Hydroxy-4-[3-(4,4-dimethylthiochroman-8-yl)prop-1-ynyl]benzoic Acid] yielded a melting point of 190 to 191 °C.

Compound `CCOC(=O)c1ccc(C#CCc2cc(C(C)(C)C)cc(C(C)(C)C)c2O)cc1` [Example 16, Ethyl 4-[3-(3,5-di-tert-butyl-2-hydroxyphenyl)prop-1-ynyl]benzoate] displayed a melting point of 113 to 115 °C.

`COc1c(C(O)C#Cc2ccc(C(=O)O)cc2)cc(C(C)(C)C)cc1C(C)(C)C` (stereo not shown) [Example 18, 4-[3-(3,5-Di-tert-butyl-2-methoxyphenyl)-3-hydroxyprop-1-ynyl]benzoic Acid] registered a melting point of 208 to 209 °C.

For the compound `COc1c(C(C#Cc2ccc(C(=O)O)cc2)OC)cc(C(C)(C)C)cc1C(C)(C)C` (stereo not shown) [Example 25, 4-[3-(3,5-Di-tert-butyl-2-methoxyphenyl)-3-methoxyprop-1-ynyl]benzoic Acid], the melting point was 162 to 164 °C.

`COCOc1c(C(O)C#Cc2ccc(C(=O)O)cc2)cc(C(C)(C)C)cc1C(C)(C)C` (stereo not shown) [Example 14, 4-[3-(3,5-Di-tert-butyl-2-(methoxymethoxy)phenyl)-3-hydroxyprop-1-ynyl]benzoic Acid] had a melting point of 197 °C.

`COc1c(CC#Cc2ccc(C(=O)O)cc2)cc(C(C)(C)C)cc1C(C)(C)C` [Example 19, 4-[3-(3,5-Di-tert-butyl-2-methoxyphenyl)prop-1-ynyl]benzoic Acid] displayed a melting point of 237 to 239 °C.

As to `COc1c(CC#Cc2ccc(C(=O)O)cc2)cc(-c2ccccc2)cc1C(C)(C)C` [Example 31, 4-[3-(5-tert-Butyl-4-methoxybiphenyl-3-yl)prop-1-ynyl]benzoic Acid], the melting point fell in the range of 229 to 231 °C.

In turn, `COc1c(C(O)C#Cc2ccc(C(=O)O)cc2)cc(-c2ccccc2)cc1C(C)(C)C` (stereo not shown) [Example 23, 4-[3-(5-tert-Butyl-4-methoxybiphenyl-3-yl)-3-hydroxyprop-1-ynyl]benzoic Acid] yielded a melting point of 165 to 167 °C.

With `CC1(C)CCSc2cccc(C(O)C#Cc3ccc(C(=O)O)cc3)c21` (stereo not shown) [Example 11, 4-[3-(4,4-Dimethylthiochroman-5-yl)-3-hydroxyprop-1-ynyl]benzoic Acid], the melting point is 198 °C.

For `CC1(C)CCC(C)(C)c2c(C(O)C#Cc3ccc(C(=O)O)cc3)cc(-c3ccccc3)cc21` (stereo not shown), the melting point was 250 °C.
